This note sets out measurements from BindingDB's records for patent US9670191 (Nerviano Medical Sciences, 2017).

The target in this test is T1, Cell division cycle 7-related protein kinase [58-574]/Protein DBF4 homolog A (Homo sapiens, UniProt O00311).
T1 construct: 58-574
T1 sequence (O00311 58-574): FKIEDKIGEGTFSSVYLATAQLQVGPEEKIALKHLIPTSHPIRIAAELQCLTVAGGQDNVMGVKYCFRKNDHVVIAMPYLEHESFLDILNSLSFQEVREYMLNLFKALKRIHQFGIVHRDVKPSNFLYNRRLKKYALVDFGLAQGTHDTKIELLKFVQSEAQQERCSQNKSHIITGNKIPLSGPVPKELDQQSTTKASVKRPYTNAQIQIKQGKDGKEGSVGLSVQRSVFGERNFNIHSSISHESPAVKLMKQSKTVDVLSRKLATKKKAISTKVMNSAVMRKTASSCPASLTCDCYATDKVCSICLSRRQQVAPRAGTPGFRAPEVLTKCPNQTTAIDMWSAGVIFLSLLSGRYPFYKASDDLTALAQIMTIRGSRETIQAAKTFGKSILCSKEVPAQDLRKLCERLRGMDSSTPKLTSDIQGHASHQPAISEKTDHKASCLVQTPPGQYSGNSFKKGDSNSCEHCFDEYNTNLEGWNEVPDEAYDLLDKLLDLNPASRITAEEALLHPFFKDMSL
T1 sequence (Q9UBU7 whole entry, further chain): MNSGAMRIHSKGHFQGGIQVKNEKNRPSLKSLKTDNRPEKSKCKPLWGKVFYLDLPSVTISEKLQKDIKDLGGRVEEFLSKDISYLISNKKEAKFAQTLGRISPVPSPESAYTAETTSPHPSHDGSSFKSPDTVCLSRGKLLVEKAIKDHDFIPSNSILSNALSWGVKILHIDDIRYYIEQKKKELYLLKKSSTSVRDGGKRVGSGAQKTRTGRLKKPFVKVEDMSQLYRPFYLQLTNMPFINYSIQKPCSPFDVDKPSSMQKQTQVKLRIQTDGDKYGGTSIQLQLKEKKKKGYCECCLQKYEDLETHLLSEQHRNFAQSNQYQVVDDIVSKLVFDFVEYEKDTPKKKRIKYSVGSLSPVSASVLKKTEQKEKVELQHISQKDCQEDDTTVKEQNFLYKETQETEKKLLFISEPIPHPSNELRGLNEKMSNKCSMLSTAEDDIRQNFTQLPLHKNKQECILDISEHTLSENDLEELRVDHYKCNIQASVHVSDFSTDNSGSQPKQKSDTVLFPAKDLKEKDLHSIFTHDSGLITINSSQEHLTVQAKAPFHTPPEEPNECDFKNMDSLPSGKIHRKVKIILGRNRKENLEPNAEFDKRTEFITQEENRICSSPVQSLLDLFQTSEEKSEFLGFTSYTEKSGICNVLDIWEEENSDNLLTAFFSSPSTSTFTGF
Description: Inhibition Assay of Cdc7 Activity. As to the method: The assay consists of the transfer of radioactivity labeled phosphate moiety by the kinase to an acceptor substrate. The resulting 33P-labeled product is separated from unreacted tracer, transferred into a scintillation cocktail and light emitted is measured in a scintillation counter. The inhibition assay of Cdc7/Dbf4 activity is performed according to the following protocol. The MCM2 substrate is trans-phosphorylated by the Cdc7/Dbf4 complex in the presence of ATP traced with γ33-ATP. The reaction is stopped by addition of Dowex resin in the presence of formic acid. Dowex resin particles capture unreacted γ33-ATP and drag it to the bottom of the well while 33P phosphorylated MCM2 substrate remains in solution. The supernatant is collected, transferred into Optiplate plates and the extent of substrate phosphorylation is evaluated by β counting. The inhibition assay of Cdc7/Dbf4 activity was performed in 96 wells plate according to the following protocol.
In general, IC50 refers to the concentration that inhibits the measured activity by half. Read a high IC50 as a need for much substance. `NC(=O)c1cc(-c2ccncc2)[nH]c1-c1ccccc1[N+](=O)[O-]` [US9670191, A13] showed an IC50 below 1 µM.
With `NC(=O)c1cc(-c2ccncc2)[nH]c1-c1cccc([N+](=O)[O-])c1` [US9670191, A14], the IC50 was below 1 µM.
The same measure for `NC(=O)c1cc(-c2ccncc2)[nH]c1-c1ccc([N+](=O)[O-])cc1` [US9670191, A15]: below 1 µM.
Under `N#Cc1cccc(-c2[nH]c(-c3ccncc3)cc2C(N)=O)c1` [US9670191, A23] stands below 1 µM; under `NC(=O)c1cc(-c2ccncc2)[nH]c1-c1ccncc1` [US9670191, C3], below 1 µM.
Turning to `NC(=O)c1cc(-c2ccnc(N)n2)[nH]c1-c1cccc2ccccc12` [US9670191, F5], the IC50 was below 1 µM.
For the compound `NC(=O)c1cc(-c2ccnc(N)n2)[nH]c1-c1ccc2ccccc2c1` [US9670191, F6], the 50% inhibitory concentration (IC50) was below 1 µM.
The same measure for `NC(=O)c1cc(-c2ccnc(N)n2)[nH]c1-c1cccs1` [US9670191, G2]: below 1 µM.
As to `NC(=O)c1cc(-c2ccnc(N)n2)[nH]c1-c1cc2ccccc2s1` [US9670191, G5], the concentration for half-maximal inhibition (IC50) was below 1 µM.
For the compound `NC(=O)c1cc(-c2ccnc(N)n2)[nH]c1-c1csc2ccccc12` [US9670191, G6], the IC50 was below 1 µM.
`NC(=O)c1cc(-c2ccnc(N)n2)[nH]c1-c1cc2ccccc2o1` [US9670191, G9] yielded an IC50 below 1 µM.
Take `NC(=O)c1cc(-c2ccnc(N)n2)[nH]c1-c1ccccn1` [US9670191, G12]: the IC50 is below 1 µM.
The same measure for `Cn1cc(-c2[nH]c(-c3ccnc(N)n3)cc2C(N)=O)c2ccccc21` [US9670191, G13]: below 1 µM; for `Cn1c(-c2[nH]c(-c3ccnc(N)n3)cc2C(N)=O)cc2ccccc21` [US9670191, G14]: below 1 µM.
Take `NC(=O)c1cc(-c2ccnc(N)n2)[nH]c1-c1ccc2sccc2c1` [US9670191, G15]: the IC50 is below 1 µM.
Take `CNC(=O)c1cc(-c2ccnc(N)n2)[nH]c1-c1ccccc1` [US9670191, M1]: the IC50 was below 1 µM.
In turn, `NC(=O)c1c(-c2ccccc2)[nH]c(-c2ccnc(N)n2)c1I` [US9670191, N3] returned an IC50 below 1 µM.
Under `C=Cc1c(-c2ccnc(N)n2)[nH]c(-c2ccccc2)c1C(N)=O` [US9670191, O1] stands below 1 µM.
`NC(=O)c1c[nH]c(-c2ccncc2)c1` [US9670191, P1] gave an IC50 below 1 µM.
Under `NC(=O)c1cc(-c2ccncc2)[nH]c1C1CCCCC1` [US9670191, Q1] stands below 1 µM.
Under `CC(C)(C)OC(=O)N1CCC(c2[nH]c(-c3ccncc3)cc2C(N)=O)CC1` [US9670191, Q2] stands below 1 µM; under `NC(=O)c1cc(-c2ccncc2)[nH]c1C1CCNCC1` [US9670191, Q3], below 1 µM; under `NC(=O)c1cc(-c2ccncc2)[nH]c1Br` [US9670191, R1], below 1 µM.
On to `NC(=O)c1cc(-c2ccnc(N)n2)sc1-c1ccccc1` [US9670191, S1], for which the IC50 is below 1 µM.
In turn, `NC(=O)c1cc(-c2ccnc(N)n2)oc1-c1ccccc1` [US9670191, T1] had a 50% inhibitory concentration (IC50) below 1 µM.
The same measure for `NC(=O)c1cc(-c2nc(N)ncc2F)[nH]c1-c1ccccc1` [US9670191, V1]: below 1 µM; for `NC(=O)c1c(-c2ccccc2)[nH]c(-c2ccnc(N)n2)c1Cl` [US9670191, Z1]: below 1 µM.
